Measured values from ChEMBL document CHEMBL3507680, “University of Dundee, Gates Library screen for HepG2 cell viability”.

Test: Human HepG2 cell viability assay in 384 well format
Type: toxicity, cell-based
Parameters: dose 125 nL, time 70.5 hour; cytotoxicity at 70.5 h: concentration not given beside the values
Settings: HepG2 cells, read-out: Inhibition

CC(=O)N1CCN(C(=O)CN2CCCC2c2c(C)nn(C)c2C)CC1 (centres undefined)
cytotoxicity at 70.5 h: 7.11%

Cc1ccn2cc(C(=O)N3CCCC3c3c(C)nn(C)c3C)nc2c1 (centres undefined)
cytotoxicity at 70.5 h: -7.44%

Cn1cc(C(=O)N2CC[C@@H]3[C@@H]2CCN3Cc2ccncc2)cn1
cytotoxicity at 70.5 h: -12.1%

CCC(C(=O)NC1(CN2CCOCC2)CCCC1)n1cccn1 (centres undefined)
cytotoxicity at 70.5 h: -2.56%

O=S(=O)(C1CC1)N1CCO[C@@H]2CC(COCc3cccnc3)C[C@H]21 (some centres undefined)
cytotoxicity at 70.5 h: -2.81%

CNC(=O)c1cc(NC(=O)NC(C)CCc2cccn2C)ccc1F (centres undefined)
cytotoxicity at 70.5 h: 22.7%

Cc1cccc(CNCc2c(C(C)C)nn(C)c2N2CCOCC2)n1
cytotoxicity at 70.5 h: 0.6%

CC1(c2ccccc2)CCCN(Cc2cncn2C2CCCC2)C1 (centres undefined)
cytotoxicity at 70.5 h: -13.6%

CCOc1c(Br)cc(C2C3=C(COC3=O)Nc3[nH]nc(C)c32)cc1OC (centres undefined)
cytotoxicity at 70.5 h: 29.2%

OC1CN(c2nc3c(C(F)(F)F)cccc3s2)C1
cytotoxicity at 70.5 h: 12.2%

CCNC(=O)N1CCN(C(=O)c2cc(Cl)cc3cccnc23)CC1
cytotoxicity at 70.5 h: -9.51%

CCc1nc(CC(=O)N2CCn3c(nnc3C(F)(F)F)C2)cs1
cytotoxicity at 70.5 h: -7.01%

COCc1n[nH]c2c1CN(Cc1cccs1)C2
cytotoxicity at 70.5 h: -6.13%

Cc1cc(F)cc2c(NCC(C)(C)C(N)=O)c(C#N)cnc12
cytotoxicity at 70.5 h: 11.6%

COc1ccc(CCN2CCCC(Cn3nc(C)nc3C)C2)cc1 (centres undefined)
cytotoxicity at 70.5 h: -2.31%

Cc1csc(CN2CCC[C@]3(C[C@H](OCC4CC4)CO3)C2)n1
cytotoxicity at 70.5 h: 1.27%

Cc1cccc(Cn2c3c(ccc2=O)CCN(Cc2ccoc2)CC3)n1
cytotoxicity at 70.5 h: -9.52%

CC(NC1CCN(CCc2ccncc2)CC1)c1cnn(C(C)C)c1 (centres undefined)
cytotoxicity at 70.5 h: -18%

CC(NC(=O)Cn1cccn1)c1ccc2c(c1)OCCO2 (centres undefined)
cytotoxicity at 70.5 h: -11.1%

CN(C)C(=O)N1CCN(CCn2nc3ccccn3c2=O)CC1
cytotoxicity at 70.5 h: -2.81%

COCC(C)NC(=O)c1cncc(Br)c1 (centres undefined)
cytotoxicity at 70.5 h: -0.743%

Cn1cnnc1C1CCN(c2cncc(-n3cccn3)n2)CC1
cytotoxicity at 70.5 h: 1.11%

O=C1C(N2CCOC3(CCCC3)C2)CCN1C1CC1 (centres undefined)
cytotoxicity at 70.5 h: -1.76%

CN(C)S(=O)(=O)N1CCC[C@]2(C[C@@H](Oc3ccccn3)CO2)C1
cytotoxicity at 70.5 h: -17.2%

Cn1ccc(CN2CCC(NC(=O)C3CCCCC3)CC2)cc1=O
cytotoxicity at 70.5 h: -3.14%

Cc1cc(N2CCN(Cc3ccnn3C)CC2)cc(C2CCCN2)n1 (centres undefined)
cytotoxicity at 70.5 h: 13%

NC(=O)C1=NN2C(=NS(=O)(=O)c3ccccc32)N1
cytotoxicity at 70.5 h: -106%

Cn1cc(C(=O)N2CCCCC2CCc2ccc(O)cc2)cn1 (centres undefined)
cytotoxicity at 70.5 h: -10.3%

Cc1nc(C2(NCC(=O)NCc3cccs3)CCCCC2)no1
cytotoxicity at 70.5 h: -2.14%

COCCC(=O)NCc1ccc(-c2ccccc2C(=O)O)nc1
cytotoxicity at 70.5 h: -3.04%

CCNC(=O)C1(Cc2cc(-c3ccccc3)no2)CCCN(C)C1 (centres undefined)
cytotoxicity at 70.5 h: -5.43%

Cc1noc([C@H]2COC[C@H]3CN(C(=O)Cc4ccc(F)cc4)C[C@H]32)n1
cytotoxicity at 70.5 h: -2.96%

CS(=O)(=O)N1CCC(c2nccn2Cc2ccccn2)CC1
cytotoxicity at 70.5 h: -5.19%

CCOc1ccccc1-c1noc(CN2CCN(CCOC)CC2)n1
cytotoxicity at 70.5 h: -6.13%

Cc1nc(CN(Cc2ccccc2F)C2CCC2)no1
cytotoxicity at 70.5 h: -3.66%

CCCn1c(C)c(CC(=O)N[C@H](C)C(=O)OC)c2c1CC(C)(C)CC2=O
cytotoxicity at 70.5 h: -0.686%

Cc1nc(CN2CCN(CC3CCOC3)Cc3cccnc32)cs1 (centres undefined)
cytotoxicity at 70.5 h: -8.4%

Fc1ccc(OC2CCN(Cc3nnc(-c4ccco4)o3)CC2)cc1
cytotoxicity at 70.5 h: 18.9%

CCCc1nnc(NCCc2noc(C3CCC3)n2)o1
cytotoxicity at 70.5 h: -10.7%

Cc1cc(O)cc(=O)n1CCCC(=O)Nc1n[nH]c2cc(Br)ccc12
cytotoxicity at 70.5 h: -13.4%

CSCc1nc(CNC(=O)C2CCCN(C(=O)N(C)C)C2)cs1 (centres undefined)
cytotoxicity at 70.5 h: -7.03%

CC(=O)c1cc(C(=O)N2CCC(CC(C)C)C2)c(=O)[nH]c1C (centres undefined)
cytotoxicity at 70.5 h: -12.6%

CCC(C)(NCc1nc(C)c(C)o1)c1nccs1 (centres undefined)
cytotoxicity at 70.5 h: 15.6%

CCN(CCS(=O)(=O)CC)CC1CCCO1 (centres undefined)
cytotoxicity at 70.5 h: -3.45%

COc1c(C(=O)NCc2cccnc2)nnn1Cc1ccc(C)cc1
cytotoxicity at 70.5 h: -15.1%

Cc1nc(C)c(C(=O)N2CCCc3c(F)ccc(F)c32)o1
cytotoxicity at 70.5 h: -9.33%

O=C(COc1ccc2c(c1)CCCC2=O)NCc1ccco1
cytotoxicity at 70.5 h: -4.86%

CCn1ncc2c1C(COC)CN(Cc1nccs1)C2 (centres undefined)
cytotoxicity at 70.5 h: 30.6%

CNC(=O)[C@H]1C[C@H]2OCC[C@H]2N(Cc2ccc(C)o2)C1
cytotoxicity at 70.5 h: 3.85%

CC(C)c1nccc(CN2CCCC(O)(CN3CCCC3)C2)n1 (centres undefined)
cytotoxicity at 70.5 h: -0.735%

O=C(CN1CCC[C@H]1C(=O)O)NCCOc1cccc(Cl)c1
cytotoxicity at 70.5 h: -1.34%

Cc1noc(C)c1C1CCCN1C(=O)CN1C(=O)OC(C)(C)C1=O (centres undefined)
cytotoxicity at 70.5 h: 26.8%

Cc1ccsc1CNC(=O)N(C)Cc1cnn(C)c1
cytotoxicity at 70.5 h: -12.7%

Cn1c(CO[C@H]2CN(S(C)(=O)=O)C[C@H]2F)nc2ccccc21
cytotoxicity at 70.5 h: -1.31%

Cc1ccccc1CN(CCO)Cc1ncc[nH]1
cytotoxicity at 70.5 h: -12.3%

CCN1CC(C(=O)NC(C)(C)C)CC1=O (centres undefined)
cytotoxicity at 70.5 h: -6.02%

Cc1cc(CN(C)C(=O)C2CCCN(C(=O)c3ccc(Cl)cc3)C2)no1 (centres undefined)
cytotoxicity at 70.5 h: -10.8%

O=S(=O)(NCC1COc2ccccc2C1)N1CCCC1 (centres undefined)
cytotoxicity at 70.5 h: -2.58%

CC(C)Oc1ncc(C(=O)N2CCc3ccc(O)cc3C2)cc1Cl
cytotoxicity at 70.5 h: 15.8%

O=C(NCc1cc2n(n1)CCCN(Cc1ccc(CO)o1)C2)C1CCC1
cytotoxicity at 70.5 h: 18.2%

Cc1nc(C)c(CC(=O)NCc2cccnc2OC2CCCC2)c(=O)[nH]1
cytotoxicity at 70.5 h: -4.62%

COc1ccc(C2CCCN2C(=O)NCCNc2ccccn2)cc1 (centres undefined)
cytotoxicity at 70.5 h: -19.3%

Cc1ccsc1-c1nccn1CCN1CCCCC1CO (centres undefined)
cytotoxicity at 70.5 h: -4.24%

c1cn2c(n1)CNCC(COCC1CC1)C2 (centres undefined)
cytotoxicity at 70.5 h: -9.26%

CN(C)S(=O)(=O)c1csc(C(=O)N2CCSCC2)c1
cytotoxicity at 70.5 h: -1.94%

COc1ccc2c(c1)NC(=O)C2OC(=O)CCc1ccc(F)cc1 (centres undefined)
cytotoxicity at 70.5 h: 2.64%

CN1CCc2ncc(CNC(=O)c3cccn3C)n2CC1
cytotoxicity at 70.5 h: -7.23%

O=C(NCCC1=CCCCC1)Nc1cc(C(F)(F)F)c[nH]c1=O
cytotoxicity at 70.5 h: 0.799%

O=C(c1ccc2[nH]ccc2c1)N1Cc2nc(CN3CCCC3)oc2C1
cytotoxicity at 70.5 h: -5.17%

Cn1cc(CCCN2CCCC(c3cc(C(F)(F)F)[nH]n3)C2)cn1 (centres undefined)
cytotoxicity at 70.5 h: 6.94%

CCOC1CCN(C(=O)NCCN(C)C(=O)OC(C)(C)C)CC1
cytotoxicity at 70.5 h: -3.79%

NC(=O)N1CCCCCC1C1CCN(c2nccc(C(F)(F)F)n2)CC1 (centres undefined)
cytotoxicity at 70.5 h: -13.9%

CC(C)NC1CCc2c(ccc(=O)n2CCN2CCOCC2)C1 (centres undefined)
cytotoxicity at 70.5 h: -6.6%

Cc1cnc(NS(=O)(=O)c2cccc(C#N)c2)s1
cytotoxicity at 70.5 h: 20.1%

COCCN1CCC(CNC(=O)Nc2ccc(SC(F)(F)F)cc2)C1 (centres undefined)
cytotoxicity at 70.5 h: -1.27%

O=C(NC[C@H]1CCCC[C@H]1O)c1cccc2[nH]c(-c3cccs3)nc12
cytotoxicity at 70.5 h: -5.24%

c1csc(-c2noc(C3CN(Cc4ccc5c(c4)CCO5)C3)n2)c1
cytotoxicity at 70.5 h: -9.73%

Cc1cc(C)n(CC2CCCCN2CCCS(=O)(=O)N(C)C)n1 (centres undefined)
cytotoxicity at 70.5 h: 1.93%

COCc1cn(CC2CCN(Cc3c(C)[nH]c4ccccc34)CC2)nn1
cytotoxicity at 70.5 h: -7.19%

C[C@@H]1CN(S(=O)(=O)N2CCCCCC2)C[C@@]1(O)C1CCC1
cytotoxicity at 70.5 h: -8.97%

O=C1CC(c2cccs2)c2cnn(C3CCCC3)c2N1 (centres undefined)
cytotoxicity at 70.5 h: 6.7%

Cc1cnc(C(=O)N[C@H]2CN(CCS(C)(=O)=O)C[C@@H]2C2CC2)cn1
cytotoxicity at 70.5 h: 12.4%

c1ccc(CC2CCN(Cc3ccnc(-c4cccnc4)n3)CC2)cc1
cytotoxicity at 70.5 h: -3.3%

COc1c(CNCCNC(=O)c2cccc(C)c2)c(C)nn1C
cytotoxicity at 70.5 h: 3.54%

Cc1cc(NC(=O)CN2CCc3nn(C)c(=O)cc3C2)on1
cytotoxicity at 70.5 h: 1.43%

CN(Cc1ccco1)C(=O)Nc1cccnc1N1CCCC1
cytotoxicity at 70.5 h: -3.81%

Cc1ccc(N2CCO[C@H]3CN(CC4CC4)C[C@H]32)nn1
cytotoxicity at 70.5 h: -13.4%

CN(C)C(=O)CCC(=O)NCc1cccnc1-n1cnc2ccccc21
cytotoxicity at 70.5 h: -8.79%

Cc1ccsc1CCNC(=O)CCC1CCCCN1C (centres undefined)
cytotoxicity at 70.5 h: -15%

Fc1ccccc1OCCc1cc(C2CCNC2)n[nH]1 (centres undefined)
cytotoxicity at 70.5 h: -4.09%

CN(C(=O)C1CCN(Cc2cnc3ccccn23)CC1)c1ccccc1
cytotoxicity at 70.5 h: -7.69%

Cc1nnc(NC(=O)NCc2ccc(N3CCC(C)CC3)nc2)s1
cytotoxicity at 70.5 h: -8.92%

O=C1OC2(CCNCC2)CN1CC(=O)N1CCCC1c1ccco1 (centres undefined)
cytotoxicity at 70.5 h: -9.95%

COc1ccc(F)cc1CSCC(=O)N(C)C1CC1
cytotoxicity at 70.5 h: -0.442%

O=C(NCC1Cn2nnc(-c3ccoc3)c2CO1)c1ccc[nH]1 (centres undefined)
cytotoxicity at 70.5 h: -9.78%

COC(=O)c1cccc(S(=O)(=O)NC(=O)c2cccc(OC)c2OC)c1
cytotoxicity at 70.5 h: -6.86%

Cc1cc(C)c(C(=O)N2CCCC(O)(CN3CCCC3)C2)cc1C (centres undefined)
cytotoxicity at 70.5 h: -4.19%

c1cnc2c(-c3nccn3C[C@@H]3CCCN4CCCC[C@H]34)cccc2c1
cytotoxicity at 70.5 h: 2.23%

CC(C)N(CCS(C)(=O)=O)Cc1csc(Cc2ccc(Cl)cc2)n1
cytotoxicity at 70.5 h: 3.51%

Cc1ccc(Cc2sc(NC(=O)C(C)S(C)(=O)=O)nc2C)cc1 (centres undefined)
cytotoxicity at 70.5 h: -3.98%

CCCc1n[nH]c(C2CN(C(=O)c3cccc4cn[nH]c34)CCO2)n1 (centres undefined)
cytotoxicity at 70.5 h: -5.95%

CC(C(=O)NCc1ccnc(N2CCCCCC2)c1)n1cccn1 (centres undefined)
cytotoxicity at 70.5 h: 17.8%

CN(Cc1cc(F)cc2cccnc12)CC1CCN(CCO)CC1
cytotoxicity at 70.5 h: -8.39%

Cc1ccc(-c2nc(CN3CCn4c(nnc4C4CC4)C3)co2)c(C)c1
cytotoxicity at 70.5 h: -5.17%

CCCNC(=O)c1nn(CC)cc1NC(=O)c1cn(C)nc1C
cytotoxicity at 70.5 h: -12.7%

CC1(c2ccc(Br)cc2)CC(=O)N(CCC#N)C1=O (centres undefined)
cytotoxicity at 70.5 h: 32.5%

CN1CC(=O)N(C2CCNCC2)Cc2c(NCC(C)(C)C)ncnc21
cytotoxicity at 70.5 h: -9.73%

c1ccc(NCc2cn3c(n2)CNCC3)nc1
cytotoxicity at 70.5 h: 2.18%

CNC(=O)CN1CC[C@H]2CN(C(=O)c3ccc(C)cc3)C[C@H]2C1
cytotoxicity at 70.5 h: -4.71%

Cc1cccc(C(C(=O)NC(C)(C)CN2CCCC2)N(C)C)c1 (centres undefined)
cytotoxicity at 70.5 h: -8.64%

Cn1cccc1C(=O)NCc1cn2c(n1)CN(CC1CCOCC1)CC2
cytotoxicity at 70.5 h: -78.7%

N#Cc1csc(CNCCOc2ccccc2)c1
cytotoxicity at 70.5 h: 0.519%

Cc1ccc(CN(C)C(=O)CN2CCOC(Cn3cccn3)C2)o1 (centres undefined)
cytotoxicity at 70.5 h: -3.39%

CCOC(=O)C1CCN(C(=O)c2cc(OCC)c3ccoc3c2)CC1
cytotoxicity at 70.5 h: -10.7%
